Data: patent US20260345619A1 (Principia Biopharma Inc., priority 2023, published 2026)

How the values were obtained:
[1] = tested on: B cell lymphocyte kinase (BLK); conditions: cited from earlier work
[2] = read-out: IC50 for RLK; cited from earlier work
[3] = tested on: platelet aggregation; conditions: healthy volunteers or patients with ITP; cited from earlier work
[4] = tested on: bone marrow tyrosine kinase on chromosome X (BMX); conditions: cited from earlier work
[5] = tested on: 251 kinases sharing a common cysteine in their active site; conditions: cited from earlier work
[6] = ITP, cited from earlier work
[7] = healthy volunteers; cited from earlier work
[8] = Safety: adverse events (TEAEs, SAEs, AESIs), vital signs, labs; type: in vivo, human; conditions: for Participants with any TEAE / Participants with any TEAE leading to death / Participants with any TEAE related to IMP / Participants with any severe TEAE / Participants with any treatment emergent AESI / Participants with any treatment emergent SAE: safety population
Excerpt: In terms of safety, […], adverse events of special interest (AESIs), vital signs, and laboratory analyses were to be reported.
Safety assessments included physical examinations, measurements of vital signs, electrocardiograms, clinical safety laboratory assessments, and pregnancy testing.
An AE is any untoward medical occurrence in a patient or clinical study participant, temporally associated with the use of study intervention, whether or not considered related to the study intervention.
An adverse event of special interest (AESI) is an AE (serious or nonserious) of scientific and medical concern specific to the Sponsor's product or program, for which ongoing monitoring and immediate notification by the Investigator to the Sponsor was required. Such events may have required further investigation in order to characterize and understand them. Adverse events of special interest may have been added, modified or removed during a study by protocol amendment. AESIs include the following: • Pregnancy of a participant entered in a study as well as pregnancy occurring in a female partner of a participant entered in a study with IMP. • Symptomatic overdose (serious or nonserious) with IMP. • Other project-specific AESI(s), including: severe infections including opportunistic infections; tuberculosis or initiation of medications for suspected tuberculosis; active COVID-19 infection as documented by a positive COVID-19 molecular test; major hemorrhagic events, including symptomatic bleeding in a critical area or organ such as the CNS, or intraocular bleeding, resulting in an SAE; serious adverse events (or non-serious adverse events with a severity level consistent with Grade 3 CTCAE of cytopenia; and atrial fibrillation.
The safety variables, including AEs, vital signs, physical examination, and laboratory values were to be summarized using descriptive statistics in each treatment group in the safety population.
All safety analyses were to be performed on the safety population. The baseline value is defined generally as the last available value before the first dose of IMP.
In general, AEs were to be analyzed in the following 3 categories: • Pre-treatment AEs: AEs that developed, worsened, or became serious during the pre-treatment period. • TEAEs: AEs that developed, worsened, or became serious during the treatment-emergent period. • Post-treatment AEs: AEs that developed, worsened, or became serious during the post-treatment period.

[9] = Participant disposition: completion, discontinuation and reasons; type: in vivo, human
Excerpt: Participants that met the criteria for a LOAC, at any time during the randomized IMP treatment phase, were to (be): • Discontinue early from IMP treatment, • Evaluated and receive treatment by the Investigator with standard of care according to standard medical practice. If practicable and safe, the participant was to undergo EOT Visit (Visit 14) assessment prior to the administration of rescue medications. • Resume their individual prescreening ICS/LABA background therapy and, • Followed for safety during a 4-week Post IMP Treatment Period.
Participants who discontinued IMP treatment prior to completing the 12-week IMP treatment (due to LOAC or due to early treatment discontinuation), were to be evaluated as soon as possible at the individual participant's EOT Visit and using procedures as planned for the EOT Visit at Week 12 (Visit 14). At their EOT visit, participants were to resume their prescreening ICS/LABA background therapy or appropriate therapy as needed per treating physician were to be resumed after the EOT study assessments had been performed and entered the 4-week safety follow-up period/Post IMP Treatment Period, concluding with the EOS Visit (Visit 16).

[10] = tested on: ERBB4; conditions: cited from earlier work
[11] = healthy volunteers (N=51), even at supratherapeutic doses; cited from earlier work

CC(C)(C=C(C#N)C(=O)N1CCC[C@@H](n2nc(-c3ccc(Oc4ccccc4)cc3F)c3c(N)ncnc32)C1)N1CCN(C2COC2)CC1 (mixture of isomers) [rilzabrutinib, (R)-2-[3-[4-amino-3-(2-fluoro-4-phenoxy-phenyl)pyrazolo[3,4-d]pyrimidin-1-yl]piperidine-1-carbonyl]-4-methyl-4-[4-(oxetan-3-yl)piperazin-1-yl]pent-2-enenitrile]
IC50 [1]: 6.3 nM | IC50 [2]: 1.2 nM | bleeding problems [3]: does not lead to bleeding problems | IC50 [4]: 1 nM | number of kinases inhibited (>90% inhibition) ([5]; 1 μM, panel of 251 kinases): 6 kinases | cross-reactivity with other molecules ([5]; in comparison to first and second generation BTKi): minimal cross-reactivity | treatment-emergent serious adverse events (TESAEs) ([6]; Phase 1/2): no treatment-emergent serious adverse events (TESAEs) observed | participants achieving the primary response endpoint ([6]; treatment for at least 12 weeks): 50% | discontinuation due to an adverse event [7]: no participants discontinued treatment due to an adverse event | most commonly reported adverse events [7]: gastrointestinal adverse events, including nausea/vomiting and diarrhea | serious adverse events or deaths [7]: No serious adverse events or deaths were reported | overall safety ([8]; 400 mg BID and TID, asthma): generally safe, with no evidence of new safety concerns | Participants with any TEAE ([8]; 400 mg BID, N = 32): 14 (43.8) n (%) | Participants with any TEAE leading to death ([8]; 400 mg BID, N = 32): 0 n (%) | Participants with any TEAE related to IMP ([8]; 400 mg BID, N = 32): 5 (15.6) n (%) | Participants with any severe TEAE ([8]; 400 mg BID, N = 32): 0 n (%) | Participants with any treatment emergent AESI ([8]; 400 mg BID, N = 32): 1 (3.1) n (%) | Participants with any treatment emergent SAE ([8]; 400 mg BID, N = 32): 2 (6.3) n (%) | Participants with any TEAE ([8]; 400 mg TID, N = 64): 26 (40.6) n (%) | Participants with any TEAE leading to death ([8]; 400 mg TID, N = 64): 0 n (%) | Participants with any TEAE related to IMP ([8]; 400 mg TID, N = 64): 10 (15.6) n (%) | Participants with any severe TEAE ([8]; 400 mg TID, N = 64): 1 (1.6) n (%) | Participants with any treatment emergent AESI ([8]; 400 mg TID, N = 64): 3 (4.7) n (%) | Participants with any treatment emergent SAE ([8]; 400 mg TID, N = 64): 0 n (%) | Participants with any TEAE ([8]; combined BID and TID, N = 96): 40 (41.7) n (%) | Participants with any TEAE leading to death ([8]; combined BID and TID, N = 96): 0 n (%) | Participants with any TEAE related to IMP ([8]; combined BID and TID, N = 96): 15 (15.6) n (%) | Participants with any severe TEAE ([8]; combined BID and TID, N = 96): 1 (1.0) n (%) | Participants with any treatment emergent AESI ([8]; combined BID and TID, N = 96): 4 (4.2) n (%) | Participants with any treatment emergent SAE ([8]; combined BID and TID, N = 96): 2 (2.1) n (%) | Status at last contact: Dead ([9]; 400 mg BID (N = 32)): 0 n (%) | permanent study intervention discontinuation: Adverse event ([9]; 400 mg BID (N = 32)): 2 (6.3) n (%) | permanent study intervention discontinuation: Adverse event not related to COVID-19 ([9]; 400 mg BID (N = 32)): 2 (6.3) n (%) | permanent study intervention discontinuation: Adverse event related to COVID-19 ([9]; 400 mg BID (N = 32)): 0 n (%) | permanent study intervention discontinuation: Lack of efficacy ([9]; 400 mg BID (N = 32)): 0 n (%) | permanent study intervention discontinuation: Loss of asthma control (LOAC) ([9]; 400 mg BID (N = 32)): 8 (25.0) n (%) | study discontinuation: Adverse event ([9]; 400 mg BID (N = 32)): 1 (3.1) n (%) | study intervention withdrawal by subject: Adverse event ([9]; 400 mg BID (N = 32)): 1 (3.1) n (%) | Status at last contact: Dead ([9]; 400 mg TID (N = 64)): 0 n (%) | permanent study intervention discontinuation: Adverse event ([9]; 400 mg TID (N = 64)): 5 (7.8) n (%) | permanent study intervention discontinuation: Adverse event not related to COVID-19 ([9]; 400 mg TID (N = 64)): 2 (3.1) n (%) | permanent study intervention discontinuation: Adverse event related to COVID-19 ([9]; 400 mg TID (N = 64)): 3 (4.7) n (%) | permanent study intervention discontinuation: Lack of efficacy ([9]; 400 mg TID (N = 64)): 1 (1.6) n (%) | permanent study intervention discontinuation: Loss of asthma control (LOAC) ([9]; 400 mg TID (N = 64)): 10 (15.6) n (%) | study discontinuation: Adverse event ([9]; 400 mg TID (N = 64)): 0 n (%) | study intervention withdrawal by subject: Adverse event ([9]; 400 mg TID (N = 64)): 2 (3.1) n (%) | IC50 [10]: 11 nM | effect on cardiac repolarization [11]: does not exert clinically relevant effects on cardiac repolarization
